Assay results as given in patent US10426772B2, “Use of ergot alkaloids as an anthelmintic agent” (priority 2016, dated 2019).
Entries after “also recorded” stand apart in the source; their conditions may differ. Like-named read-outs stand apart in the source and are kept apart here.

Tests used:
Sm.5HTR [1] = target: Sm.5HTR (Schistosoma mansoni, UniProt G4V5G4); type: cell-based; conditions: for activity at Sm.5HTR, in words: antagonist screen, FIG. 7
Description: (§1) HEK293 cells (ATCC CRL-1573.3) were cultured in DMEM supplemented with 10% fetal bovine serum (FBS), penicillin (100 units/mL), streptomycin (100 μg/mL), and L-glutamine (290 μg/mL). Cells were transiently transfected (ViaFect, Promega) as per the manufacturer's protocol at a density of 2×10^6 cells per T-25 cell-culture flask. Cells were transfected with plasmids encoding GloSensor (Promega) and either Sm.5HTR, (Smp_126730, GenBank accession number KF444051.1) or Sm.5HTRL (KX150867), both GPCRs being codon optimized for mammalian expression, or Hs.5HT7a (GenBank accession number NM_000872.4, R&D Systems) subcloned into pCS2(−). Cell culture reagents were from Invitrogen. Epitope tagged constructs were used to verify expression, and untagged constructs used for all luminescence assays.
(§2) For assays performed on adherent cells, HEK-293 cells were transferred one day post transfection to 96 well, solid white plates (Corning, cat #3917) coated with 0.01% poly-L-lysine (Sigma Aldrich) at a density of 5×10^4 cells/well in DMEM supplemented with 1% dialyzed FBS (Gibco). After overnight culture (37° C./5% CO2), media was decanted and replaced with 100 μL/well HBSS supplemented with 0.1% BSA, 20 mM HEPES (pH 7.4) and GloSensor™ reagent. Plates were allowed to equilibrate at room temperature for two hours prior to performing luminescence assays (GloMax-Multi Detection System plate reader, Promega). Conditions for individual assays were described as per figure legends. The standard assay to detect changes in cAMP utilized the F22 sensor in media supplemented with IBMX (200 μM). Ligands were added at a concentration of 20× per well for experiments (i.e., 5 μl of drug solution added to 100 μL of cells). […] For the resazurin reduction assay for cellular viability, cells were incubated with resazurin (final concentration, 10 μM) and tested ligands with fluorescence measurements (560 nm excitation/590 nm emission) made at 1.5 hours intervals.
(§3) The protocol for screening is shown schematically in FIG. 5A. HEK293 cells transiently transfected with either the human 5HT7 receptor (Hs.5HT7R) or the schistosome receptor (Sm.5HTR) were exposed to test ligands in a 96-well plate format. […] Luminescence was then read at a fixed time point (t=60 minutes, FIG. 5A). Hits were assigned as compounds that evoked a ≥50% decrease in luminescence output at the fixed time sampling point (FIG. 5B).

Hs.5HT7R = target: T1, Hs.5HT7R (Homo sapiens, UniProt P34969); assay: GloSensor cAMP assay, HEK293 cells transiently transfected with Hs.5HT7R; type: cell-based
T1 construct: host or cells: HEK293 (ATCC CRL-1573.3), transient, pCS2(−), co-transfected with GloSensor
T1 sequence (P34969 1-445 isoform P34969-2): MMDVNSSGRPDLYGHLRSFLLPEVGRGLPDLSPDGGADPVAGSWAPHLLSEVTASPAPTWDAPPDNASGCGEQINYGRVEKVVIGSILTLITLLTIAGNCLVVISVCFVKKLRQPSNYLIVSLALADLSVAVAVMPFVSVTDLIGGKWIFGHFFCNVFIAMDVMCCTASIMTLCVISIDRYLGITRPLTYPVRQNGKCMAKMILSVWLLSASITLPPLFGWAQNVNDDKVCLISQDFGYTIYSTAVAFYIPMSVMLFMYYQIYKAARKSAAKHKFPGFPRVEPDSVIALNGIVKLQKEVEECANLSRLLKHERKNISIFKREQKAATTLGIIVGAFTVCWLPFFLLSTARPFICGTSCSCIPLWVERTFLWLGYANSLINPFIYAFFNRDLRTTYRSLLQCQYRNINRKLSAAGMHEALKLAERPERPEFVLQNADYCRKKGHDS
Description: as §1, §2, §3

Sm.5HTR [2] = target: Sm.5HTR (Schistosoma mansoni, UniProt A0A173FEI8); assay: cell-based
Sm.5HTR (Schistosoma mansoni, UniProt A0A173FEI8), sequence (A0A173FEI8 entry or part of it): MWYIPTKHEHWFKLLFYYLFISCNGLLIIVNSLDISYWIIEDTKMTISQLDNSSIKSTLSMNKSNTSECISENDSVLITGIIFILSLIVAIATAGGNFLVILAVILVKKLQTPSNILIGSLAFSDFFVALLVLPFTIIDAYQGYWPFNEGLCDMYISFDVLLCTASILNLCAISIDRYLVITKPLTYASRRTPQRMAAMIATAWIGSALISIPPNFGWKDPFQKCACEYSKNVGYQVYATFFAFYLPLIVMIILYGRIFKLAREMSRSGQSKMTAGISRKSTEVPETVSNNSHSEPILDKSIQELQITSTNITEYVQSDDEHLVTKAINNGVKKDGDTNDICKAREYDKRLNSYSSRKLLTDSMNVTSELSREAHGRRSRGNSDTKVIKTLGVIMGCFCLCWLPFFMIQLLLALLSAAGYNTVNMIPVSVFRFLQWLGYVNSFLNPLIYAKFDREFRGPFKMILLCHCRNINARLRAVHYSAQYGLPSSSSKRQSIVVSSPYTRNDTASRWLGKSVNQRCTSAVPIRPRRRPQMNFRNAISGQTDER
Description: HEK293 cells (ATCC CRL-1573.3) were cultured in growth media consisting of DMEM supplemented with GlutaMAX (Gibco cat #10566016)+10% heat inactivated fetal bovine serum and penicillin-streptomycin (100 units/mL, ThermoFisher). Stable cell lines for the pGloSensor-22F cAMP Plasmid (Promega) and schistosome 5HTRs in pcDNA3.1(−) were selected with hygromycin (200 μg/mL) and G418 (400 μg/mL). The correct identity of each stably expressed sequence was verified by isolating total RNA from each stable line (TRIzol Reagent, Ambion) and amplifying the sequence of interest with gene specific primers flanking the 5′ and 3′ regions of the cds (SuperScript® III One-Step RT-PCR System, Invitrogen). PCR products were ligated into a TA cloning vector (pGEM-T Easy, Promega) and sequenced.
HEK293 lines stably expressing both the 22F cAMP sensor and Sm.5HTR were cultured in growth media supplemented with 10% dialyzed FRS. For cAMP assays in 96 well format, cells cultured in T-75 flasks were trypsinized (TrypLE Express, Gibco) and plated in solid white 96 well plates (Costar cat #3917) the day prior to assay at a density of 2.5×10^4 cells/well. The following day media was removed and replaced with assay buffer consisting of HBSS buffered with HEPES (20 mM, pH 7.4)+BSA (0.1% w/v) and D-luciferin sodium salt (1 mg/mL, Gold Biotechnology). Plates were equilibrated at room temperature for 1 hour, at which point 3-Isobutyl-1-methylxanthine (IBMX 200 μM, Sigma Aldrich) was added. Plates were equilibrated a further 30 minutes prior to test compound addition. […] Readings performed in 384 well format were modified so that cells were assayed in suspension. Cells were grown to 70% confluence in T-75 flasks, trypsinized and pelleted (300 RCF×5 minutes). Media was removed and cells were resuspended in 25 mL assay buffer supplemented with IBMX (200 μM). A 96 channel semi-automated pipet (Eppendorf epMotion 96) delivered 55 μL of cell suspension per well (5000 cells/well) into solid white 384 plates (Corning 3574).

Sm.5HTRL = Sm.5HTRL (Schistosoma mansoni, UniProt A0A173FEI8); assay: GloSensor cAMP assay, HEK293 cells transiently transfected with Sm.5HTRL; type: cell-based; conditions: antagonists 10 μM; 5-HT EC80 dose 0.8 μM (FIG. 8)
Sm.5HTRL, sequence (A0A173FEI8 entry or part of it): as above
Description: as §1, §2

[3] = test system: S. mansoni schistosomules; assay: Schistosomule contractility assay; type: cell-based; conditions: Schistosoma mansoni, read-out: inhibition of 5-HT evoked contractility
Description: FIGS. 14A-14F. […] Effects of selected ligands on schistosomules. […] A contractile cycle is defined when a deviation of ≥20% of the average body length (dashed lines) occurs.
Biomphalaria glabrata (M-line) snails exposed to Schistosoma mansoni miracidia (Strain PR-1) were obtained from BEI Resources (Cat. number NR-21961) and cercaria were shed following exposure to light (1.5 hours). Cercaria were manually transformed into schistosomula by vortexing (3×45 seconds, each separated by 3 minutes on ice) and tails were removed by gradient centrifugation (24 mL Percoll, 4 mL 10×EMEM, 1.5 ml penicillin-streptomycin, 1 mL of 1M HEPES in 0.85% NaCl, 9.5 ml distilled water) at 500 g/15 minutes at 4° C. Supernatant containing tails was discarded, and schistosomules were resuspended in Basch media and incubated (37° C., 5% CO2) overnight before conducting mobility assays. For contractility experiments, somules were incubated in 5-HT free Basch media to resolve a basal contractility rate. […] Schistosomules were incubated in 24 well plates (about 200 schistosomules/0.5 mL media per well) for 30 minutes (37° C./5% CO2) prior to acquiring videos of schistosome movement (1 minute recordings/well) using a Nikon Coolpix 5700 camera affixed to a Nikon Eclipse TS100 microscope (10× objective). The WrmTrck plugin for ImageJ was used to quantify worm mobility (El-Shehabi et al., 2012). Briefly, the major axis of each schistosomule body length was extracted from the raw output of WrmTrck and an average length was determined for the duration of the recording. Contractions were quantified by determining the number of episodes during which the worm body length deviated from the average by over 20%. S. mansoni protocols were approved by the Iowa State University Institutional Biosafety Committee.

adult schistosomes = assay: Egg laying assay, adult schistosome pairs in vitro; type: cell-based, Schistosoma mansoni; conditions: serotonin 100 μM, forskolin 100 μM, LSD 10 μM, nuciferine 10 μM, ergotamine 5 μM (FIG. 19F); eggs per worm pair/day over five days
Source text: Female Swiss Webster mice infected with S. mansoni cerceria (NMRI strain) were sacrificed 49 days post infection by CO2 euthanasia. Adult schistosomes were recovered by perfusion with a solution of 0.85% sodium chloride+0.75% sodium citrate and dissection of the mesenteric vasculature. Harvested schistosomes were washed in RPMI 1640 Medium with GlutaMAX+5% heat inactivated FBS (Gibco) and Penicillin-Streptomycin (final concentration 100 units/mL, ThermoFisher cat #15140122).
For egg laying assays, adult schistosomes were transferred to 24 well plates the day after harvesting from mice (5 worm pairs in 2 mL media per well). Eggs were counted under a stereomicroscope daily, after which worms were transferred to a new well with fresh drug containing media. Egg counts were recorded for five days, and data processed as the mean number of eggs laid per worm pair/day. Measurements of egg dimensions were quantified using the “analyze>measure” function in ImageJ to record the length and width of individual eggs.

[4] = antagonism of 5-HT evoked cAMP, FIGS. 7, 12, 13

Sm.5HTR (Schistosoma mansoni, UniProt G4V5G4), sequence (G4V5G4 entry or part of it): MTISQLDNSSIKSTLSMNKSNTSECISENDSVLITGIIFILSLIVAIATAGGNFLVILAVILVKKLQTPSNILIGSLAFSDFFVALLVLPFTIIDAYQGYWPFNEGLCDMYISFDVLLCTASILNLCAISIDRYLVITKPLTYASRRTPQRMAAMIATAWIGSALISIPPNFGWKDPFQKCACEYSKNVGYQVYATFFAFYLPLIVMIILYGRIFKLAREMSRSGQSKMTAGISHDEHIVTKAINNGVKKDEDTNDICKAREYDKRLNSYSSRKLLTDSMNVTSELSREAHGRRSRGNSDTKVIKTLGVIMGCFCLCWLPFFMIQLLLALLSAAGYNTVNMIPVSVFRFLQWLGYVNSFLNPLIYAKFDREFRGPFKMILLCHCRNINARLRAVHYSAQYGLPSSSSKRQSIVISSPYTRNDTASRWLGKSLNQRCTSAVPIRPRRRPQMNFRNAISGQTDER

O=S(=O)(c1ccccc1)c1cnc2c(N3CCNCC3)cccc2c1 [SB742457]
activity at Sm.5HTR, in words (Sm.5HTR [1]): completely lacked activity at Sm.5HTR; also recorded: modest effects on Sm.5HTR | inhibition of Hs.5HT7R, in words (Hs.5HT7R; FIG. 7): potent inhibitors of Hs.5HT7R

COc1ccc2cc3[n+](cc2c1OC)CCc1cc2c(cc1-3)OCO2 [berberine]
selectivity Sm.5HTR versus Hs.5HT7R (IC50 (Hs.5HT7R)/IC50 (Sm.5HTR)), in words (Sm.5HTR [1]; [4]): decreased potency and selectivity for Sm.5HTR

CCN1CCCC1CNC(=O)c1cc(S(=O)(=O)CC)c(N)cc1OC (stereo not drawn) [amisulpiride]
activity at Sm.5HTR, in words (Sm.5HTR [1]): modest effects on Sm.5HTR

C[C@@H](CO)NC(=O)[C@@H]1C=C2c3cccc4[nH]cc(c34)C[C@H]2N(C)C1 [ergometrine]
Emax (Sm.5HTR [2]; HEK293, agonist read, 45 minutes, read-out: Sm.5HTR Emax): 61 ± 4%

COc1cc2c(cc1OC)-c1cc3ccc(OC)c(OC)c3c[n+]1CC2 [palmatine]
selectivity Sm.5HTR versus Hs.5HT7R (IC50 (Hs.5HT7R)/IC50 (Sm.5HTR)), in words (Sm.5HTR [1]; [4]): decreased potency and selectivity for Sm.5HTR

CNCC[C@@H](Oc1ccccc1C)c1ccccc1 [atomoxetine]
selectivity Sm.5HTR versus Hs.5HT7R (IC50 (Hs.5HT7R)/IC50 (Sm.5HTR)), in words (Sm.5HTR [1]): clear selectivity for Sm.5HTR; also recorded: preferential selectivity toward Sm.5HTR | inhibition of 5-HT evoked cAMP generation through Sm.5HTRL (Sm.5HTRL): inhibited 5-HT evoked cAMP generation through Sm.5HTRL

CC1CCN(CC[C@H]2CCCN2S(=O)(=O)c2cccc(O)c2)CC1 [SB269970]
activity at Sm.5HTR, in words (Sm.5HTR [1]): modest effects on Sm.5HTR | activity at Sm.5HTR, in words (Sm.5HTR [1]; listed as SB 269970): completely lacked activity at Sm.5HTR

COc1cc2c(cc1OC)C1CC(=O)C(CC(C)C)CN1CC2 (stereo not drawn) [tetrabenazine]
selectivity Sm.5HTR versus Hs.5HT7R (IC50 (Hs.5HT7R)/IC50 (Sm.5HTR)), in words (Sm.5HTR [1]): selectivity for Sm.5HTR retained | potency (IC50) at Sm.5HTR, lower right quadrant of FIG. 13 (Sm.5HTR [1]; inhibition of cAMP generation): sub-μM potency | potency (IC50) at Hs.5HT7R, lower right quadrant of FIG. 13 (Hs.5HT7R; inhibition of cAMP generation): supra-μM potency | inhibition at 100 µM [3]: ~50%

CCN(CC)C(=O)[C@@H]1C=C2c3cccc4[nH]cc(c34)C[C@H]2N(C)C1 [LSD, lysergic acid diethylamide]
EC50 (Sm.5HTR [2]): 250 ± 150 nM | Emax (Sm.5HTR [2]; HEK293, read-out: Sm.5HTR Emax): 40 ± 26% | inhibition of 5-HT evoked cAMP generation at higher concentrations (Sm.5HTR [1]; >10 μM): almost complete inhibition | agonist efficacy at Sm.5HTR, in words (Sm.5HTR [1]; FIG. 10A): no efficacy | Kb (Sm.5HTR [1]; antagonism of 5-HT evoked cAMP accumulation, FIG. 10F, read-out: affinity constants (KB), Schild regression analysis): 629 nM | nature of antagonism: right-shift in the 5-HT dose-response relationship (Sm.5HTR [1]; increasing doses of ligand, FIGS. 10B-D): competitive antagonism | decrease of egg laying (adult schistosomes): no effect
